Assay results as given in patent US10023555B2, “NSAIDs derivatives and uses thereof” (Research Foundation of The City University of New York, priority 2013, dated 2018).
pIC50: −log10 of the molar value. Like-named read-outs stand apart in the source and are kept apart here.

Columns and labels:
Type in all cases: cell-based
[1] = test system: HCT-15 human colon adenocarcinoma cells; assay: MTT cell growth inhibition, HCT 15; conditions: for pIC50: Homo sapiens, read-out: IC50 for cell growth inhibition; for Enhanced Potency: ratio of IC50 NSAID/POSH-NSAID, fold-enhancement over parent, HCT 15
[2] = test system: LNCAP human prostate cancer cells; assay: MTT cell growth inhibition, LNCAP; conditions: 24 h; for pIC50: Homo sapiens, read-out: IC50 for cell growth inhibition; for Enhanced Potency: ratio of IC50 NSAID/POSH-NSAID, fold-enhancement over parent, LNCAP
[3] = test system: BxPC-3 human pancreatic cancer cells; assay: MTT cell growth inhibition, BxPC3; conditions: for pIC50: Homo sapiens, read-out: IC50 for cell growth inhibition; for Enhanced Potency: ratio of IC50 NSAID/POSH-NSAID, fold-enhancement over parent, BxPC3
[4] = test system: HT-29 human colon adenocarcinoma cells; assay: MTT cell growth inhibition, HT-29; conditions: for pIC50: Homo sapiens, read-out: IC50 for cell growth inhibition; for Enhanced Potency: ratio of IC50 NSAID/POSH-NSAID, fold-enhancement over parent, HT-29
[5] = test system: A549 human lung cancer cells; assay: MTT cell growth inhibition, A549; conditions: for pIC50: Homo sapiens, read-out: IC50 for cell growth inhibition; for Enhanced Potency: ratio of IC50 NSAID/POSH-NSAID, fold-enhancement over parent, A549
[6] = test system: Jurkats human leukemia cells; assay: MTT cell growth inhibition, Jurkat; conditions: 24 h; for pIC50: Homo sapiens, read-out: IC50 for cell growth inhibition; for Enhanced Potency: ratio of IC50 NSAID/POSH-NSAID, fold-enhancement over parent
[7] = test system: SW-480 human colon adenocarcinoma cells; assay: MTT cell growth inhibition, SW480; conditions: for pIC50: Homo sapiens, read-out: IC50 for cell growth inhibition; for Enhanced Potency: ratio of IC50 NSAID/POSH-NSAID, fold-enhancement over parent, SW480
[8] = test system: MIA PaCa-2 human pancreatic cancer cells; assay: MTT cell growth inhibition, MIAPaCa2; conditions: for pIC50: Homo sapiens, read-out: IC50 for cell growth inhibition; for Enhanced Potency: ratio of IC50 NSAID/POSH-NSAID, fold-enhancement over parent, MIAPaCa2
[9] = Prostate LNCAP, mean ± SEM of three determinations
[10] = BXPC-3, 24 h, Pancreas BxPC3, mean ± SEM of three determinations
[11] = 24 h, Lung A549, mean ± SEM of three determinations
[12] = Leukemia Jurkat, mean ± SEM of three determinations
[13] = MIA PaCa-2, 24 h, Pancreas MIAPaCa2, mean ± SEM of three determinations

`CC(=O)Oc1ccccc1C(=O)O` [ASA, aspirin, reference compound] showed a pIC50 ([1]; 24 h, Colon HCT 15, mean ± SEM of three determinations) of less than 2.30, a pIC50 [2, 9] of less than 2.30 and a pIC50 [3, 10] of less than 2.30. It also gave a pIC50 ([4]; 24 h, Colon HT-29, mean ± SEM of three determinations) of less than 2.30, a pIC50 [5, 11] of less than 2.30 and a pIC50 [6, 12] of less than 2.30. It also gave a pIC50 ([7]; 24 h, Colon SW480, mean ± SEM of three determinations) of less than 2.30 and a pIC50 [8, 13] of less than 2.30.

In the case of `COc1ccc2cc([C@H](C)C(=O)O)ccc2c1` [NAP, naproxen, reference compound], the pIC50 [2, 9] was 2.52, the pIC50 [3, 10] was 2.59 and the pIC50 [5, 11] was 2.58. For the same compound, the pIC50 [6, 12] was 2.62 and the pIC50 [8, 13] was 2.49.

With `CCOP(=O)(OCC)OCCSSCCOC(=O)c1ccccc1OC(C)=O` [POSH-ASA] the pIC50 ([1]; HCT-15, 24 h) was 7.12, the “Enhanced Potency” value ([1]; 24 h) was >65,000 and the pIC50 ([2]; LNCaP) was 7.12. The “Enhanced Potency” value [2] was >65,000, the pIC50 ([3]; BXPC-3, 24 h) was 7.12 and the “Enhanced Potency” value ([3]; 24 h) was >65,000. For the same compound, the pIC50 ([4]; HT-29, 24 h) was 7.09, the “Enhanced Potency” value ([4]; 24 h) was >60,000 and the pIC50 ([5]; A549, 24 h) was 7.08. For the same compound, the “Enhanced Potency” value ([5]; 24 h) was >60,000, the pIC50 ([6]; Jurkat) was 6.66 and the “Enhanced Potency” value ([6]; Jurkat) was >20,000. For the same compound, the pIC50 ([7]; SW480, 24 h) was 7.04, the “Enhanced Potency” value ([7]; 24 h) was >50,000 and the pIC50 ([8]; MIA PaCa-2, 24 h) was 7.09. For the same compound, the “Enhanced Potency” value ([8]; 24 h) was >60,000.

For `CCOP(=O)(OCC)OCCSSCCOC(=O)C(C)c1ccc2cc(OC)ccc2c1` (stereo not drawn) [POSH-NAP], the pIC50 ([1]; HCT-15, 24 h) was 6.92, the “Enhanced Potency” value ([1]; 24 h) was ~24,000 and the pIC50 ([2]; LNCaP) was 6.89. For the same compound, the “Enhanced Potency” value [2] was ~25,000, the pIC50 ([3]; BXPC-3, 24 h) was 7.00 and the “Enhanced Potency” value ([3]; 24 h) was ~26,000. For the same compound, the pIC50 ([4]; HT-29, 24 h) was 6.82, the “Enhanced Potency” value ([4]; 24 h) was ~18,000 and the pIC50 ([5]; A549, 24 h) was 6.80. For the same compound, the “Enhanced Potency” value ([5]; 24 h) was ~16,000, the pIC50 ([6]; Jurkat) was 6.77 and the “Enhanced Potency” value ([6]; Jurkat) was ~14,000. The pIC50 ([7]; SW480, 24 h) was 6.74, the “Enhanced Potency” value ([7]; 24 h) was ~17,000 and the pIC50 ([8]; MIA PaCa-2, 24 h) was 7.06. For the same compound, the “Enhanced Potency” value ([8]; 24 h) was ~36,000.
